{"source": "patent US20260327239A1", "about": "“COMPOUNDS FOR COVALENT INHIBITION OF SHP2” (Purdue Research Foundation, priority 2023, published 2026)", "key": {"[1]": {"biological_target": "SHP1 (Homo sapiens, UniProt P29350)", "sequence (P29350 whole entry)": "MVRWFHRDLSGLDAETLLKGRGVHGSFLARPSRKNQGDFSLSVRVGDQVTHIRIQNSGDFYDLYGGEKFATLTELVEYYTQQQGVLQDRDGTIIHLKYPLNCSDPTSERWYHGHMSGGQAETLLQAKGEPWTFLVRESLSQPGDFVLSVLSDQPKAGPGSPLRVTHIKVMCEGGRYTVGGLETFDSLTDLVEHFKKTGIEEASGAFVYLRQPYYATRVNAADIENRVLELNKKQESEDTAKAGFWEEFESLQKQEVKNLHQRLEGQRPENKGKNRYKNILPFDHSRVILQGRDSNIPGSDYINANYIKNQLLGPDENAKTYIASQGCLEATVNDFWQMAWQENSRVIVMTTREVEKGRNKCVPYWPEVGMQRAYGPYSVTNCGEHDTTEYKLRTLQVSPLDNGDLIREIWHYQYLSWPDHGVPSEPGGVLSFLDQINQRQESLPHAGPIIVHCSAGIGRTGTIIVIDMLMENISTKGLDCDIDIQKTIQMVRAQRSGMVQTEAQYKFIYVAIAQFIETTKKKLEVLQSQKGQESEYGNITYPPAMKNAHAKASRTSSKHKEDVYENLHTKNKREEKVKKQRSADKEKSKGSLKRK", "assay": "Time-dependent IC50 determination, SHP1 (10 min preincubation, pNPP)", "format": "biochemical", "experimental": "(§1) During active compound characterization, other common PTPs, including SHP1. PTP1B, and LYP, were counter-screened. Compounds were incubated for 10 minutes with the corresponding PTP (4 μM) before being diluted 50-fold into a solution containing excess substrate para-nitrophenyl phosphate (10 mM) to monitor the remaining activity. […] This was not expected, given their high sequence and structural homology. […] While unexpected, the lower sequence homology provides a rationale for the observed selectivity.\n(§2) Inhibitors were evaluated for their ability to inhibit the reaction catalyzed by SHP2 using para-nitrophenyl phosphate (pNPP) as a substrate at pH 7 and 25° C. The reaction was started in a clear flat-bottom 96-well plate (Corning Costar Assay Plate #9017) by the addition of 25 μL of 4 μM PTP in DMG buffer to 25 μl of 2× inhibitor (final concentrations=2 μM PTP, 100-0 μM inhibitor). Reactions were incubated for 1 or 10 minutes before transferring 4 μL into 196 μL of 10.1 mM pNPP in DMG buffer (final concentration=40 nM PTP, 10 mM pNPP). These wells were then allowed to react for 10, 45, or 3 minutes for SHP1 and SHP2, LYP, PTP1B respectively before quenching with 50 μL of 5 M NaOH. Plates were then read for absorbance at 405 nm using a CLARIOstar^Plus plate reader (BMG Labetch). […]"}, "[2]": {"biological_target": "T1, SHP2 (Homo sapiens, UniProt Q06124)", "T1 construct": "4× solution of SHP2 (residues 224-528)", "T1 sequence (Q06124 224-528)": "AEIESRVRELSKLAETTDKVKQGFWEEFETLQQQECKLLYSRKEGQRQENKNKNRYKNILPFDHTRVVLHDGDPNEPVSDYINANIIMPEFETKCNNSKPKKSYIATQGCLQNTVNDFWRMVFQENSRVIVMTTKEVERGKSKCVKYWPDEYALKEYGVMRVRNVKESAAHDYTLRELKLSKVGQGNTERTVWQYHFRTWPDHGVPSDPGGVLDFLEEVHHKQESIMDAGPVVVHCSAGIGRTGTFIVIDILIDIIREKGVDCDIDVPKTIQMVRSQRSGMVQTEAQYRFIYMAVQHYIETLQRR", "assay": "Time-dependent IC50 determination, SHP2 (10 min preincubation, pNPP)", "format": "biochemical", "conditions": "10 mM pNPP, pH 7, 25° C, read-out: 10 Minute IC50", "experimental": "as §1, §2"}, "[3]": {"biological_target": "T1, SHP2", "assay": "Covalent adduct formation on SHP2 by intact protein LC-MS", "format": "binding", "conditions": "10 μM SHP2, 60 minutes", "experimental": "To validate covalent modification of SHP2 by the active compounds, adduct formation on SHP2 was measured by intact protein liquid chromatography-mass spectrometry (LC-MS). With intact protein LC-MS, multiply charged states of the protein species can be deconvoluted to achieve the total mass(es). Compounds were incubated with 10 μM SHP2 for 60 minutes before being quenched with acetonitrile for LC-MS analysis by electrospray ionization (ESI) in positive mode. […] (33), and (42) (FIGS. 3A and 3B).\nTo unfold protein and quench protein-ligand reactivity, 10 μL of treated or untreated 10 μM SHP2 was diluted in 40 μL of 80% (v/v) formic acid initially, followed by 150 μL of LC-MS buffer (50/50 water/acetonitrile with 0.1% formic acid). 20-25 pmol per sample was analyzed by LC/MS (Agilent 1260 Infinity II with a ZORBAX Rapid Resolution High Definition 300 Å Stable Bond C3, 2.1×100 mm, 1.8 μm column) attached to an Agilent 6129 quadrupole mass spectrometer in positive ion mode. The column was held at 45° C. Mobile solution A was 0.1% formic acid in water, and mobile phase B was 0.1% formic acid in acetonitrile. The gradient used was hold at 10% B for 5 min, increase linearly to 80% B for 15 min, and then hold at 80% B for 5 min. The mass data were collected at a range of 600-1500 m/z. Raw data were processed using MestReNova. For all samples, the deconvoluted mass was calculated by taking the m/z range of 730-1100 Da, and deconvoluted mass range from 36500-37200 Da. An abundance threshold of 10% and tolerance of 30 ppm was set for deconvolution. Unreacted SHP2's total deconvoluted mass was 36602±10 Da; for each deconvolution, the highest deconvoluted mass intensity was utilized as the mass pivot point to determine and identify reacted SHP2 adducts. To calculate the percent SHP2 reacted, the relative abundance intensity of reacted SHP2 was divided by the total relative abundance intensities of unreacted and reacted SHP2."}}}
{"smiles": "C=C1C(=O)[C@@]2(C(=O)N3CCN(c4ccc(I)cc4)CC3)CC(=O)C[C@@H]1C2", "note": "[Compound 37]", "values": [{"measurement": "IC50", "setting": "[1]; SHP1, 10 minutes preincubation, curve not completed (solubility), extrapolated, read-out: 10 Minute IC50", "result": 212, "unit": "µM"}, {"measurement": "Fold-Selective (10 Minutes)", "setting": "[1]; SHP2 over SHP1", "result": 13.75, "unit": "fold"}, {"measurement": "IC50", "setting": "[2]", "result": 15.4, "unit": "µM"}, {"measurement": "Found Ligand Adduct (mass shift)", "setting": "[3]; intact protein LC-MS", "result": 461, "unit": "Da"}, {"measurement": "% SHP2 Reacted (overall adduct formation)", "setting": "[3]; PVSN at 20 μM, compound 37 at 10 μM", "result": 33, "unit": "%"}]}
